Assay results reported in patent US12486246B2, “Replication protein A (RPA)-DNA interaction inhibitors” (THE TRUSTEES OF INDIANA UNIVERSITY, priority 2019, dated 2025).

How the values were obtained:
[1] = target: T1, full length heterotrimeric human RPA (Homo sapiens, UniProt P27694); test: Electrophoretic mobility shift assay (EMSA), binding of full length human RPA to ssDNA; conditions: for IC50: full length human RPA binding to DNA, mean ± SD of minimum triplicate experiments
T1 construct: Full length, heterotrimeric human RPA (fl-RPA) and DBD-A/B constructs were expressed and purified; made in house
Experimental: Full length, heterotrimeric human RPA (fl-RPA) and DBD-A/B constructs were expressed and purified according to previously described protocol. The DBD-A/B construct was expressed as a His6-RPA181-422 fusion protein. E. coli BL21 (DE3) cells in log growth were induced for 3 h with 0.5 mM IPTG at 37° C. The cells were lysed via sonication in buffer containing 20 mM Tris pH 7.5, 500 mM NaCl, 10 mM b-mercaptoethanol, supplemented with 25 μg/mL lysozyme, 1 μg/mL leupeptin, 1 μg/mL pepstatin and 0.5 mM PMSF. The lysate was applied to a 20 mL phosphocellulose column equilibrated in the same buffer and the flow-through material collected, brought to 5 mM Imidazole and loaded onto a 2 ml Ni-NTA column. The column was washed and proteins eluted on with a gradient from 50 mM to 500 mM imidazole. Fractions were assessed by EMSA and SDS-PAGE and DBD-A/B containing fraction were pool, dialyzed against buffer containing 50 mM HEPES pH 7.0, 500 mM NaCl and 1 mM DTT and stored at −80° C.
EMSAs were carried out using previously described procedure with the following modification. EMSA reactions (20 μL) were performed with 50 nM fl-RPA and 2.5 nM 5′ [^32P]-labeled 34-base DNA in buffer containing 20 mM HEPES (pH 7.8), 1 mM DTT, 0.001% NP-40, 50 mM NaCl. Chemical compounds were suspended in DMSO and DMSO concentration in the reaction mixture was kept constant at 2% or below 5%. RPA was incubated with inhibitor or DMSO control in reaction buffer for 30 min before the addition of DNA. Reactions were incubated for 5 min at room temperature and products separated via 6% native polyacrylamide gel electrophoresis. The bound and unbound fractions were then quantified by phosphor-imager analysis using ImageQuant software (Molecular Dynamics, CA) and IC50 values calculated by non-linear regression using SigmPlot (Sysat). For EMSA reactions with RPA DBD-A/B, 150 nM DBD-A/B was used, and electrophoresis was performed at 4° C. All other conditions were identical to those described for the full-length RPA.
Purified full length heterotrimeric human RPA protein was used to screen a series of analogs in an electrophoretic mobility shift assay (EMSA) measuring direct binding to a ss-DNA substrate. Quantification of the EMSA data and additional concentration dependent analysis to measure IC50 values of newly synthesized analogs provided potential insight into the structure-activity relationships (Table 1 and 2). […] Fluorine and trifluoromethyl substituents were included in pyridinyl compounds 28-29.

[2] = Aqueous solubility in unbuffered water; format: physicochemical; conditions: 43, 44, 45, 46, 47 vs 9, 16, 26, 28, 29 respectively
Experimental: Aqueous solubility was determined by suspending compound in un-buffered water with stirring. Insoluble material was removed by sedimentation or filtration and soluble compound quantified by absorbance spectroscopy and LC/MS. pH dependence was determined by suspending compound in 10 mM citrate buffer at pH 4.0 or 10 mM phosphate […] as described above in the description.
The morpholine ring is commonly introduced into solvent exposed regions as a privileged solubilizing group to improve solubility or pharmacokinetic properties including metabolic stability of a prospective drug scaffold which is exemplified by many FDA approved drugs. Modifications on Ring A had less of an effect than the morpholino modifications at the alkyl carboxylic acid side chain. To determine the effect of pH on solubility, we prepared solution at 1 mM in citrate buffer at pH 4, phosphate buffer at pH 7 and carbonate buffer at pH 9.5.

[3] = test system: sonicated salmon sperm DNA; test: Fluorescent intercalator displacement (FID) assay, SYBR-Green; format: binding; conditions: 25 mM MOPS pH 6.5
Experimental: The analysis of compound interactions with DNA was determined by inhibition of SYBR-Green intercalation into DNA as we have previously described. Briefly, reactions were performed in 25 mM MOPS (pH 6.5) containing sonicated salmon sperm DNA (8.29 ng/μL), SYBR-Green, and the indicated concentrations of RPA inhibitors. Reactions were conducted in black 96-well plates. Doxorubicin, a known noncovalent DNA binding chemotherapeutic, was used as a positive control. Fluorescence was measured using a BioTek® Synergy™ H1 hybrid multi-mode microplate reader with an excitation wavelength of 485 nm, emission wavelength of 528 nm, and a read height of 7 mm. Data were collected using BioTek® Gen5™ reader software. Reactions were incubated a maximum of 5 min before measurements were collected.
In order to probe the potential role of DNA intercalation as a mechanism for RPA inhibition, compounds 19, 23, 26, 27, 43 and 45 were analyzed using FID assay along with doxorubicin (Dox) as a positive control. […] In addition, direct binding of 9 derivatives to the target protein was assessed using a differential scan fluorimetry (DSF) assay. This assay assesses the melting profile of a protein at increasing temperatures via fluorescent dye binding. The direct interaction of a small molecule to the target protein can either increase or decrease the melting temperature (Tm) of the target depending on the specific protein and their interactions. […] Heparin sulfate, a known RPA interacting molecule often used in the purification of the protein was used as a control. […] (data not shown). […] (FIG. 1B).

T1 sequence (P27694 whole entry): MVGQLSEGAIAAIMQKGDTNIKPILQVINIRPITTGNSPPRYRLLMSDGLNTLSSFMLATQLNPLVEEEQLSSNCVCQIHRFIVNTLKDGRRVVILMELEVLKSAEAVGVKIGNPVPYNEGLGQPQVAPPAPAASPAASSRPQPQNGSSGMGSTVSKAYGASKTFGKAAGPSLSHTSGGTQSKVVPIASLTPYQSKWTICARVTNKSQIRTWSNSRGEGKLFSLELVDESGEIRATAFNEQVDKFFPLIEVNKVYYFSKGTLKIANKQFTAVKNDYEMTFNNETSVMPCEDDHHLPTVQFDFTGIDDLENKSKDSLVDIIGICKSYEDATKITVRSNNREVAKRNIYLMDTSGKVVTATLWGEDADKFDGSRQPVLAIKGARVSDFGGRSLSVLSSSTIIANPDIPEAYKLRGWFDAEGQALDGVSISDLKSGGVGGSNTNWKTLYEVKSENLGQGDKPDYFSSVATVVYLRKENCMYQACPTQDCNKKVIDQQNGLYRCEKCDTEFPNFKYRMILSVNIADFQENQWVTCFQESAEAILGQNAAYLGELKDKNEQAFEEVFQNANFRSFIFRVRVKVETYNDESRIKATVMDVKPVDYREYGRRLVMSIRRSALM
T1 sequence (P15927 whole entry partner): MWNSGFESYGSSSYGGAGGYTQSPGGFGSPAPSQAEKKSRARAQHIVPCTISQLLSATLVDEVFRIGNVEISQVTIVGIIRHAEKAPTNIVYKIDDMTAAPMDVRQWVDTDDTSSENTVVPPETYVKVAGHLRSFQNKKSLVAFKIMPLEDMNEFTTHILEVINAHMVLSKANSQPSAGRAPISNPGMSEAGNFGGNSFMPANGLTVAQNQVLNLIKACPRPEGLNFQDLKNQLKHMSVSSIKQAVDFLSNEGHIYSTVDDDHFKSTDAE
T1 sequence (P35244 whole entry partner): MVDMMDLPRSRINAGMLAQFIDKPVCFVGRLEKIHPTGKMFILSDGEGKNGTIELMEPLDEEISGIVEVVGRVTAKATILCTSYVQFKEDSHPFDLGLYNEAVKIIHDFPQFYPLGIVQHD

Compound	IC50 [1]	other results
COc1cccc2c1C(=O)c1c(O)c3c(c(O)c1C2=O)C[C@@](O)(C(=O)CO)C[C@@H]3O[C@H]1C[C@H](N)[C@H](O)[C@H](C)O1 [doxorubicin, reference compound]		DNA binding activity (displacement of SYBR-Green intercalator) [3]: concentration dependent reduction in fluorescence
CCOc1ccc2cc(C3CC(c4ccc(O)cc4)=NN3C(=O)CCCC(=O)O)c(Cl)nc2c1 (stereo not shown) [Compound 17, 5-(5-(2-Chloro-7-ethoxyquinolin-3-yl)-3-(4-hydroxyphenyl)-4,5-dihydro-1H-pyrazol-1-yl)-5-oxopentanoic acid]	> 25 µM	
CCOc1ccc2cc(C3CC(c4ccc(I)cc4)=NN3c3ccc(C(=O)O)cc3)c(Cl)nc2c1 (stereo not shown) [Compound 40, 4-(5-(2-Chloro-7-ethoxyquinolin-3-yl)-3-(4-iodophenyl)-4,5-dihydro-1H-pyrazol-1-yl)benzoic acid]	> 25 µM	
CCOc1ccc2cc(C3CC(c4ccc(Br)cc4)=NN3C(=O)CCCC(=O)O)c(Cl)nc2c1 (stereo not shown) [Compound 16, 5-(3-(4-Bromophenyl)-5-(2-chloro-7-ethoxyquinolin-3-yl)-4,5-dihydro-1H-pyrazol-1-yl)-5-oxopentanoic acid]	19.2 ± 4.17 µM	
CCOc1ccc2cc(C3CC(c4ccc([N+](=O)[O-])cc4)=NN3C(=O)CCCC(=O)O)c(Cl)nc2c1 (stereo not shown) [Compound 18, 5-(5-(2-Chloro-7-ethoxyquinolin-3-yl)-3-(4-nitrophenyl)-4,5-dihydro-1H-pyrazol-1-yl)-5-oxopentanoic acid]	> 25 µM	
CCOC(=O)CCCC(=O)N1N=C(c2ccc(I)cc2)CC1c1cc2ccc(OCC)cc2nc1Cl (stereo not shown) [Compound 30, ethyl 5-(5-(2-chloro-7-ethoxyquinolin-3-yl)-3-(4-iodophenyl)-4,5-dihydro-1H-pyrazol-1-yl)-5-oxopentanoate]	> 25 µM	RPA inhibitory activity compared to compound 9 (in words) ([1]; full length RPA): decreased RPA inhibitory activity
CCOc1ccc2cc(C3CC(c4ccc(OC(=O)N5CCOCC5)cc4)=NN3C(=O)CCCC(=O)O)c(Cl)nc2c1 (stereo not shown) [Compound 21, 5-(5-(2-Chloro-7-ethoxyquinolin-3-yl)-3-(4-((morpholine-4-carbonyl)oxy)phenyl)-4,5-dihydro-1H-pyrazol-1-yl)-5-oxopentanoic acid]	> 25 µM	RPA inhibitory activity compared to compound 9 (in words) ([1]; full length RPA): decreased RPA inhibition
CCOc1ccc2cc(C3CC(c4ccc(I)cc4)=NN3c3cccc(C(=O)O)c3)c(Cl)nc2c1 (stereo not shown) [Compound 39, 3-(5-(2-Chloro-7-ethoxyquinolin-3-yl)-3-(4-iodophenyl)-4,5-dihydro-1H-pyrazol-1-yl)benzoic acid]	> 25 µM	

More lines, in order of falling IC50 [1], values ahead:

IC50 [1]	Compound	other results
10.5 ± 0.68 µM	CCOc1ccc2cc(C3CC(c4ccc(I)cc4)=NN3C(=O)CCCC(=O)NCCN3CCOCC3)c(Cl)nc2c1 (stereo not shown) [Compound 42, 5-(5-(2-Chloro-7-ethoxyquinolin-3-yl)-3-(4-iodophenyl)-4,5-dihydro-1H-pyrazol-1-yl)-N-(2-morpholinoethyl)-5-oxopentanamide]	
9.93 ± 1.23 µM	CCOc1ccc2cc(C3CC(c4ccc(I)cc4)=NN3C(=O)CCCCCC(=O)O)c(Cl)nc2c1 (stereo not shown) [Compound 38, 7-(5-(2-Chloro-7-ethoxyquinolin-3-yl)-3-(4-iodophenyl)-4,5-dihydro-1H-pyrazol-1-yl)-7-oxoheptanoic acid]	
8.98 ± 0.98 µM	C=CC(=O)Oc1ccc(C2=NN(C(=O)CCCC(=O)O)C(c3cc4ccc(OCC)cc4nc3Cl)C2)cc1 (stereo not shown) [Compound 20, 5-(3-(4-(Acryloyloxy)phenyl)-5-(2-chloro-7-ethoxyquinolin-3-yl)-4,5-dihydro-1H-pyrazol-1-yl)-5-oxopentanoic acid]	fold increase in potency/activity compared to compound 9 ([1]; full length RPA): 2 fold
6.86 ± 0.23 µM	CCOc1ccc2cc(C3CC(c4ccc(I)cc4)=NN3C(=O)CCCCC(=O)O)c(Cl)nc2c1 (stereo not shown) [Compound 37, 6-(5-(2-Chloro-7-ethoxyquinolin-3-yl)-3-(4-iodophenyl)-4,5-dihydro-1H-pyrazol-1-yl)-6-oxohexanoic acid]	
6.77 ± 0.64 µM	CCOc1ccc2cc(C3CC(c4ccc(-c5ccoc5)cc4)=NN3C(=O)CCCC(=O)O)c(Cl)nc2c1 (stereo not shown) [Compound 22, 5-(5-(2-chloro-7-ethoxyquinolin-3-yl)-3-(4-(furan-3-yl)phenyl)-4,5-dihydro-1H-pyrazol-1-yl)-5-oxopentanoic acid]	
6.63 ± 0.48 µM	CCOc1ccc2cc(C3CC(c4ccc(I)cc4)=NN3C(=O)CCCC(=O)N3CCOCC3)c(Cl)nc2c1 (stereo not shown) [Compound 41, 1-(5-(2-Chloro-7-ethoxyquinolin-3-yl)-3-(4-iodophenyl)-4,5-dihydro-1H-pyrazol-1-yl)-5-morpholinopentane-1,5-dione]	
5.85 ± 0.39 µM	CCOc1ccc2cc(C3CC(c4ccc(-c5ccc(C(F)(F)F)nc5)cc4)=NN3C(=O)CCCC(=O)NCCCN3CCOCC3)c(Cl)nc2c1 (stereo not shown) [Compound 47, 5-(5-(2-Chloro-7-ethoxyquinolin-3-yl)-3-(4-(6-(trifluoromethyl)pyridin-3-yl)phenyl)-4,5-dihydro-1H-pyrazol-1-yl)-N-(3-morpholinopropyl)-5-oxopentanamide]	aqueous solubility compared to carboxylic acid counterpart (in words) [2]: increased solubility
4.35 ± 0.42 µM	CCOc1ccc2cc(C3CC(c4ccc(-c5ccc(C(F)(F)F)nc5)cc4)=NN3C(=O)CCCC(=O)O)c(Cl)nc2c1 (stereo not shown) [Compound 29, 5-(5-(2-Chloro-7-ethoxyquinolin-3-yl)-3-(4-(6-(trifluoromethyl)pyridin-3-yl)phenyl)-4,5-dihydro-1H-pyrazol-1-yl)-5-oxopentanoic acid]	
2.66 ± 0.6 µM	CCOc1ccc2cc(C3CC(c4ccc(-c5ccc(F)nc5)cc4)=NN3C(=O)CCCC(=O)O)c(Cl)nc2c1 (stereo not shown) [Compound 28, 5-(5-(2-Chloro-7-ethoxyquinolin-3-yl)-3-(4-(6-fluoropyridin-3-yl)phenyl)-4,5-dihydro-1H-pyrazol-1-yl)-5-oxopentanoic acid]	
2.34 ± 0.22 µM	CCOc1ccc2cc(C3CC(c4ccc(N)cc4)=NN3C(=O)CCCC(=O)O)c(Cl)nc2c1 (stereo not shown) [Compound 19, 5-(3-(4-Aminophenyl)-5-(2-chloro-7-ethoxyquinolin-3-yl)-4,5-dihydro-1H-pyrazol-1-yl)-5-oxopentanoic acid]	DNA binding activity (displacement of SYBR-Green intercalator) [3]: No significant DNA binding activity
2.29 ± 0.31 µM	CCOc1ccc2cc(C3CC(c4ccc(-c5ccc(F)nc5)cc4)=NN3C(=O)CCCC(=O)NCCCN3CCOCC3)c(Cl)nc2c1 (stereo not shown) [Compound 46, 5-(5-(2-Chloro-7-ethoxyquinolin-3-yl)-3-(4-(6-fluoropyridin-3-yl)phenyl)-4,5-dihydro-1H-pyrazol-1-yl)-N-(3-morpholinopropyl)-5-oxopentanamide]	aqueous solubility compared to carboxylic acid counterpart (in words) [2]: increased solubility
